The text below walks through data of article PMC10363080, “Modulatory Effect of Pyrus pyrifolia Fruit and its Phenolics on Key Enzymes against Metabolic Syndrome: Bioassay-Guided Approach, HPLC Analysis, and In Silico Study” (Plant Foods for Human Nutrition (Dordrecht, Netherlands), 2023).

Experiment [1] has as its target T1, porcine pancreatic lipase (Sus scrofa, UniProt P00591).
T1 construct: purchased Abnova
T1 sequence (P00591 1-450): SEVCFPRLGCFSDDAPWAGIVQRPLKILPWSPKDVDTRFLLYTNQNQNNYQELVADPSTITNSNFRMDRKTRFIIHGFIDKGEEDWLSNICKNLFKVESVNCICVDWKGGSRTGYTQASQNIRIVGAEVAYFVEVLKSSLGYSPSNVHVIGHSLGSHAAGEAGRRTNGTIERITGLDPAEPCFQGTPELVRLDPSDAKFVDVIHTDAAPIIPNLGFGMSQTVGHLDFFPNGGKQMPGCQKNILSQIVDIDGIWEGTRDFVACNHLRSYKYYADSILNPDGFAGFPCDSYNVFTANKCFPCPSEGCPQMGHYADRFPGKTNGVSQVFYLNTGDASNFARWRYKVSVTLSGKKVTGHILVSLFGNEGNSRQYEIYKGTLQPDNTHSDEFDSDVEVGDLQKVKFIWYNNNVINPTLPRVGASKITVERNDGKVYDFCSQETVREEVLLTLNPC
Description: Pancreatic lipase inhibitory activity. Format: biochemical. The following applies: isolated compounds, Table S7; read-out: Inhibition (IC50) Lipase. The procedure:
(§1) Phenolic acids and flavonoids used in HPLC analysis as well as all other reagents for biological investigations were obtained from Sigma Chemical Company […]
(§2) Inhibitory activity against key enzymes related to metabolic syndrome (MS) All assays were performed in 96-well plates. Stock solutions of the extract (100 mg/mL), fractions (100 mg/mL), and isolated compounds (1000 µM) were prepared. Tested samples that exceeded […]
(§3) inhibitory concentration (IC50). The percentage of enzyme inhibition was calculated according to […]
(§4) % Inhibition = (A−B) − (C−D) x 100 […]
Pancreatic lipase inhibitory activity
The pancreatic lipase inhibitory activity was assessed using p-nitrophenyl dodecanoate (p-NPD) as substrate and porcine pancreatic lipase (Abnova, Taipei, Taiwan) which was described […]
previously. […] The tested samples were diluted in DMSO were incubated with 10 g L−1 PL (diluted in 0.05 mol L−1 Tris-HCl buffer pH 8.0, containing […]
in 0.5% TritonX 100) (m v−1) was added to initiate the reaction. The absorbances were measured

Experiment [2] addresses T2, inducible nitric oxide synthase (iNOS) (Mus musculus, UniProt P29477).
T2 construct: endogenous in cells; host or cells: RAW264.7 mouse macrophages, LPS-induced
T2 sequence (P29477 1-1144): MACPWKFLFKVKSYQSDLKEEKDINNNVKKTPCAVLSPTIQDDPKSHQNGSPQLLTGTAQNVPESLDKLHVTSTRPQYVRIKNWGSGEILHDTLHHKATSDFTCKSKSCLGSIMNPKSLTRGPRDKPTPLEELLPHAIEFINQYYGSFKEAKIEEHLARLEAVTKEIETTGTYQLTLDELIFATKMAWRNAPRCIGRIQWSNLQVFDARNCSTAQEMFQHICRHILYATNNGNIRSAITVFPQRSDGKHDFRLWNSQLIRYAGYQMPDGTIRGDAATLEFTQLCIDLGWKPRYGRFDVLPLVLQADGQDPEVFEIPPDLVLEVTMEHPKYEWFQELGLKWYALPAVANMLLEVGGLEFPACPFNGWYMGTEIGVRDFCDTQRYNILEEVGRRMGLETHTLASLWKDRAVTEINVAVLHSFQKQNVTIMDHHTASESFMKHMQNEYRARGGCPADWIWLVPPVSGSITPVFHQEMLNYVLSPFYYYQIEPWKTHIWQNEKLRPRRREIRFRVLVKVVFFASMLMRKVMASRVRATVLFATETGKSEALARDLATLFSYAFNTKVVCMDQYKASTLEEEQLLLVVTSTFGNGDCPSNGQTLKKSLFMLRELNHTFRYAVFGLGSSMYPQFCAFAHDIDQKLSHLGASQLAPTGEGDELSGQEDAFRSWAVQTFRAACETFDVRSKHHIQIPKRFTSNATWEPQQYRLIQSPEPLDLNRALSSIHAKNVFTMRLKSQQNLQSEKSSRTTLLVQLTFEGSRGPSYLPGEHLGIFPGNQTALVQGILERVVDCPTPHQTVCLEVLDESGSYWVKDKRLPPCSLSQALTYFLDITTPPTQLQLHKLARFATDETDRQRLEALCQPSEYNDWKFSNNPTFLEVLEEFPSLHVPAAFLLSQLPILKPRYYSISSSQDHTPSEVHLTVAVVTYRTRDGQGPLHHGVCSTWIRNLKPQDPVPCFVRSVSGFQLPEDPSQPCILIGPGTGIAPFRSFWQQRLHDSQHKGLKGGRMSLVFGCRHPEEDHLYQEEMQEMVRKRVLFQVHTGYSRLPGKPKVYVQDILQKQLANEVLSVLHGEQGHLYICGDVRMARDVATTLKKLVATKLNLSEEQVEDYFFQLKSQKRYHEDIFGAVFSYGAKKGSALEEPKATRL
Description: iNOS inhibitory activity in LPS-induced RAW264.7 macrophages (nitrite, Griess reagent). The format is cell-based. The following applies: isolated compounds, Table S7, RAW264.7 cells, read-out: Inhibition (IC50) iNOS (converted). How it is done:
as §1, §2, §3, §4
Inducible nitric oxide synthase (iNOS) inhibitory activity iNOS inhibitory activity was determined in mouse macrophage cells (RAW264.7, Shanghai BOGO Industrial Co., Ltd., China) according to a previously designed method. Phenol red-free RPMI medium from Thermo-Fisher was used to develop macrophages. It was supplemented with 10% bovine calf serum, 100 U/mL of penicillin G sodium from Sigma-Aldrich, and 100 µg/mL of streptomycin (Sigma-Aldrich). Cells (50,000/well) were seeded onto 96-well plates, which were […]

Another experiment addresses T3, α-glucosidase (Saccharomyces cerevisiae, UniProt P53341).
T3 construct: purchased Sigma
In words: biochemical. Conditions: isolated compounds, Table S7. How it is done:
as §1, §2, §3
% Inhibition = (A−B) − (C−D) x 100
A is the activity of the enzyme without tested samples, B is the control of A with neither tested samples nor enzyme, C, and D denote the activity of the test solutions with and without the tested […]
α-Glucosidase inhibitory activity
α-Glucosidase inhibition assays were performed according to a previously described method.
The tested samples were mixed with glutathione, α-glucosidase solution (Saccharomyces cerevisiae, EC 3.2.1.20, Sigma) in phosphate buffer , and the chromogenic substrate p-nitrophenyl-D-glucopyranoside (pNPG). Tested samples (50 μL) were incubated with α-glucosidase (100 μL.
0.6 U mL−1) in the presence of phosphate buffer (0.1 M, pH 6.9) for 10 min at 37 °C. Fifty μL of […] pNPG in phosphate buffer (pH 6.9) was added, and the mixture was incubated again for 12 min at 37 °C. Enzyme activity was evaluated by measuring ρ-nitrophenol release from the ρNPG […]
Absorbance at 405 nm was measured. […]

In a further experiment the target is ACE1 (Homo sapiens, UniProt P12821). Description: Angiotensin conversion enzyme (ACE) inhibitory activity (HHL substrate). Conditions: isolated compounds, Table S7; read-out: Inhibition (IC50) ACE1. The format is biochemical. The procedure:
as §1, §2, §3, §4
Pancreatic lipase inhibitory activity […]

The target in the next experiment is xanthine oxidase (XO) (Bos taurus, UniProt P80457). Description: Xanthine oxidase (XO) inhibitory activity. Conditions: isolated compounds, Table S7; read-out: Inhibition (IC50) XO. The format is biochemical. The procedure: all of analytical grade. […]
as §1, §2, §3

The mark [3] stands for this setting: Inhibition (IC50) α-Glucosidase.

Where two headings read alike, the source gives them in different places.

T3 sequence (P53341 whole entry): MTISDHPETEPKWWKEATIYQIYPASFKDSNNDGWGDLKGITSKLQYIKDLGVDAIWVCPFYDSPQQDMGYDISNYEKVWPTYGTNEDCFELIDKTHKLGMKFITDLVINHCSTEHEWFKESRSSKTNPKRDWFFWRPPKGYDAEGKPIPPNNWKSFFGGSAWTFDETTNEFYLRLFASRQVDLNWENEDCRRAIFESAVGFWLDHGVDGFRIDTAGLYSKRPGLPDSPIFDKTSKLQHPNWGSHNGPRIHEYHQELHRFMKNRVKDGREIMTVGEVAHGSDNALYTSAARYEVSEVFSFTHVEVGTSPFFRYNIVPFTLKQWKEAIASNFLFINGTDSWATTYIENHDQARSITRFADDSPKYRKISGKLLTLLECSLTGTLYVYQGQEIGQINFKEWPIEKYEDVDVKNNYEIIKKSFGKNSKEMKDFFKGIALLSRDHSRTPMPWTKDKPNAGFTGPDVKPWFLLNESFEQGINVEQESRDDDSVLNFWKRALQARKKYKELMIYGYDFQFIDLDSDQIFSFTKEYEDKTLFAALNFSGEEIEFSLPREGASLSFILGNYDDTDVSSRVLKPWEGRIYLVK
Sequence of xanthine oxidase (XO) (P80457 2-1332): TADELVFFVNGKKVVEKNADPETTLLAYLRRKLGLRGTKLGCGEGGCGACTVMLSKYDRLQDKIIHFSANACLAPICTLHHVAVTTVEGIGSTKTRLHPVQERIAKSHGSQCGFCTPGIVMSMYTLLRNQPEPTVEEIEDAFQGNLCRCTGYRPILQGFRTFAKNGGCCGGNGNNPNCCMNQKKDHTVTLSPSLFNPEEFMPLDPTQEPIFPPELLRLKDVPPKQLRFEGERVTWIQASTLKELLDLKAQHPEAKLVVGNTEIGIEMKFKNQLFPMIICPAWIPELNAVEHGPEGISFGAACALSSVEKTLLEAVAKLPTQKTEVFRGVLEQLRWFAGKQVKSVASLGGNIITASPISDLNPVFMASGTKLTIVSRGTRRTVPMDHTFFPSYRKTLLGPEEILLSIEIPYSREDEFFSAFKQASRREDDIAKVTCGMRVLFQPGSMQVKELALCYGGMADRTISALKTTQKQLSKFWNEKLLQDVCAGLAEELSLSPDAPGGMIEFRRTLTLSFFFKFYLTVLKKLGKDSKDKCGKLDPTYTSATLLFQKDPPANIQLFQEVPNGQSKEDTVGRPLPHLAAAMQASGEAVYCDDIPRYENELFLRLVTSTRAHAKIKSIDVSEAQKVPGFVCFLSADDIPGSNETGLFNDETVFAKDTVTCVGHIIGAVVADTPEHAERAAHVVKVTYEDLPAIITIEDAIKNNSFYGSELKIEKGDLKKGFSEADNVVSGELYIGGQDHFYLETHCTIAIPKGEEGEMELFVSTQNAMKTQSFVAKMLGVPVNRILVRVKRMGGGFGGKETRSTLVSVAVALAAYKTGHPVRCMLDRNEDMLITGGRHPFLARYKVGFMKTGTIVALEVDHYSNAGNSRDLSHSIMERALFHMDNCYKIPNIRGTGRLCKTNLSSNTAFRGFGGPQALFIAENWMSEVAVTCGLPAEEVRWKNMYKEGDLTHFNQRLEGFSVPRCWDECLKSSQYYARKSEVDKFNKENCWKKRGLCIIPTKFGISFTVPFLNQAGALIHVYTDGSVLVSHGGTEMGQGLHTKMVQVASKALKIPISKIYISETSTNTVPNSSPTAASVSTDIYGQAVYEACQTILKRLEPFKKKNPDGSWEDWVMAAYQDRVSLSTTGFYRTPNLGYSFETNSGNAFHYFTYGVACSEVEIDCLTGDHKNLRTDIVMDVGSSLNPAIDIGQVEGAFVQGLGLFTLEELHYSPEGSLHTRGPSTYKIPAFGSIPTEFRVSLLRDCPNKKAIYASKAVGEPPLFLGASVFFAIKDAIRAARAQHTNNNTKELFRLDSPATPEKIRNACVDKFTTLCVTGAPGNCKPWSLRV
Sequence of ACE1 (P12821 30-1232): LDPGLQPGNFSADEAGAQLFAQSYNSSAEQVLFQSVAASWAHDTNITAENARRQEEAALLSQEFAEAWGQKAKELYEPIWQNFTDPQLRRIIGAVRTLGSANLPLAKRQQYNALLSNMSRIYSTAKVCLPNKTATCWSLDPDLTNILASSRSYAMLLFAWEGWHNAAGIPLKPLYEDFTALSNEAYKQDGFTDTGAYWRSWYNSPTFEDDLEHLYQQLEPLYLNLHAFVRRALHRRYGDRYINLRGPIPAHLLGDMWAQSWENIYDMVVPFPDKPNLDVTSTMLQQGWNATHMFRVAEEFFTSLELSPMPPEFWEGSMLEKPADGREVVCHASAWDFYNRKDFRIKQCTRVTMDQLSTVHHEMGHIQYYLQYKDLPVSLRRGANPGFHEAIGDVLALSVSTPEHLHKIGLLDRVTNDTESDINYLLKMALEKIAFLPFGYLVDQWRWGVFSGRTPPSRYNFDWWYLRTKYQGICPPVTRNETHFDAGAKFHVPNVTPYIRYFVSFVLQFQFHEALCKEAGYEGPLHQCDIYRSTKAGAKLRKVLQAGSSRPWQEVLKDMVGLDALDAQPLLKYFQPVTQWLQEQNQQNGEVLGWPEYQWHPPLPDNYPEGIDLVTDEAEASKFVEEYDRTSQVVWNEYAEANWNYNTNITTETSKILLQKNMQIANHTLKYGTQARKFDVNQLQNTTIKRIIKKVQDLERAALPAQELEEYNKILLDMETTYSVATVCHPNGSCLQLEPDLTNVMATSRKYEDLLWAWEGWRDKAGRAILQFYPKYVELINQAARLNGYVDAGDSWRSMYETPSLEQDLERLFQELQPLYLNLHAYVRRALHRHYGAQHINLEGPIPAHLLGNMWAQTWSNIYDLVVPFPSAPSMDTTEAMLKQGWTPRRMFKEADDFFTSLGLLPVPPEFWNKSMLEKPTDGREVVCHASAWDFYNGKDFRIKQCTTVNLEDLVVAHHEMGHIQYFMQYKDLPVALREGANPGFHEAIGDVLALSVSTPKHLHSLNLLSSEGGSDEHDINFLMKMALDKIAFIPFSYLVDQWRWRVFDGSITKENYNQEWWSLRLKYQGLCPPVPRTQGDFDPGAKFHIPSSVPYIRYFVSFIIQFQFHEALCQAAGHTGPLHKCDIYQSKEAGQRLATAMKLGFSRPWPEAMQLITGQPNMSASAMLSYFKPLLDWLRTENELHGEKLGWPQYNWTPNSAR

For `O=C(/C=C/c1ccc(O)c(O)c1)O[C@@H]1C[C@](O)(C(=O)O)C[C@@H](O)[C@H]1O` [P4, chlorogenic acid], the half-maximal inhibitory concentration (IC50) in experiment [1] was 1.31 ± 0.29 µM; in experiment [2], 4.79 ± 0.89 µM.
On to `COc1cc(-c2oc3cc(O)cc(O)c3c(=O)c2O[C@@H]2O[C@H](CO)[C@@H](O)[C@H](O)[C@H]2O)ccc1O` [P3, isorhamnetin-3-O-β-D-glucopyranoside], for which the IC50 is 1.37 ± 0.86 µM on α-glucosidase (read-out: Inhibition (IC50) α-Glucosidase); 0.78 ± 0.75 µM in experiment [1]; 0.31 ± 0.86 µM on ACE1; 4.89 ± 0.78 µM in experiment [2]; 3.56 ± 0.83 µM on xanthine oxidase (XO).
Regarding `C[C@@H]1O[C@@H](OC[C@H]2O[C@@H](Oc3c(-c4ccc(O)c(O)c4)oc4cc(O)cc(O)c4c3=O)[C@H](O)[C@@H](O)[C@@H]2O)[C@H](O)[C@H](O)[C@H]1O` [P1, rutin], the IC50 was 0.98 ± 0.67 µM in experiment [1] and 4.99 ± 1.94 µM in experiment [2].
On to `O=c1c(O[C@@H]2O[C@H](CO)[C@@H](O)[C@H](O)[C@H]2O)c(-c2ccc(O)c(O)c2)oc2cc(O)cc(O)c12` [P2, isoquercitrin], for which the IC50 was 1.12 ± 0.38 µM against α-glucosidase (setting [3]), 0.57 ± 0.03 µM in experiment [1] and 4.8 ± 0.99 µM in experiment [2].
On the same counts, the results for `O=C(O)/C=C/c1ccccc1` [P6, cinnamic acid] are 0.75 µM, 0.35 ± 0.52 µM and 4.76 ± 0.25 µM.
